Assay results from patent US10787443B2, “RAF-degrading conjugate compounds” (ZAMBONI CHEM SOLUTIONS INC., priority 2017, dated 2020).

test system: GST-Braf kinase domain and biotinylated E3 substrate adapter (VHL/EloB/EloC complex or CRBN318-425); experiment: Dimerization assay (AlphaScreen/AlphaLisa), RAF/E3 dimerization; format: binding; settings: Table 15; relative value; compounds 4 fold serial dilutions from 20 μM

RAF/E3 Dimerization	Compound
+ +	Cc1ncc(NC(=O)c2cccc(C(F)(F)F)c2)cc1-c1cnc(OCc2cn(CCCCCC(=O)Nc3cccc4c3C(=O)N(C3CCC(=O)NC3=O)C4=O)nn2)c(N2CCOCC2)c1 (stereo not drawn) [Compound 1.001, N-(6′-((1-(6-((2-(2,6-dioxopiperidin-3-yl)-1,3-dioxoisoindolin-4-yl)amino)-6-oxohexyl)-1H-1,2,3-triazol-4-yl)methoxy)-2-methyl-5′-morpholino-[3,3′-bipyridin]-5-yl)-3-(trifluoromethyl)benzamide]
+ (5% > RAF/E3 Dimerization)	Cc1ncc(NC(=O)c2cccc(C(F)(F)F)c2)cc1-c1cnc(OCCc2cn(CCCCCC(=O)Nc3cccc4c3C(=O)N(C3CCC(=O)NC3=O)C4=O)nn2)c(N2CCOCC2)c1 (stereo not drawn) [Compound 1.002, N-(6′-(2-(1-(6-((2-(2,6-dioxopiperidin-3-yl)-1,3-dioxoisoindolin-4-yl)amino)-6-oxohexyl)-1H-1,2,3-triazol-4-yl)ethoxy)-2-methyl-5′-morpholino-[3,3′-bipyridin]-5-yl)-3-(trifluoromethyl)benzamide]
+ +	Cc1ncc(NC(=O)c2cccc(C(F)(F)F)c2)cc1-c1cnc(OCCCc2cn(CCCCCC(=O)Nc3cccc4c3C(=O)N(C3CCC(=O)NC3=O)C4=O)nn2)c(N2CCOCC2)c1 (stereo not drawn) [Compound 1.003, N-(6′-(3-(1-(6-((2-(2,6-dioxopiperidin-3-yl)-1,3-dioxoisoindolin-4-yl)amino)-6-oxohexyl)-1H-1,2,3-triazol-4-yl)propoxy)-2-methyl-5′-morpholino-[3,3′-bipyridin]-5-yl)-3-(trifluoromethyl)benzamide]
+ (5% > RAF/E3 Dimerization)	Cc1ncc(NC(=O)c2cccc(C(F)(F)F)c2)cc1-c1cnc(OCCCCCc2cn(CCCCCC(=O)Nc3cccc4c3C(=O)N(C3CCC(=O)NC3=O)C4=O)nn2)c(N2CCOCC2)c1 (stereo not drawn) [Compound 1.005, N-(6′-((5-(1-(6-((2-(2,6-dioxopiperidin-3-yl)-1,3-dioxoisoindolin-4-yl)amino)-6-oxohexyl)-1H-1,2,3-triazol-4-yl)pentyl)oxy)-2-methyl-5′-morpholino-[3,3′-bipyridin]-5-yl)-3-(trifluoromethyl)benzamide]
+ (5% > RAF/E3 Dimerization)	Cc1ncc(NC(=O)c2cccc(C(F)(F)F)c2)cc1-c1cnc(OCCCCCCc2cn(CCCCCC(=O)Nc3cccc4c3C(=O)N(C3CCC(=O)NC3=O)C4=O)nn2)c(N2CCOCC2)c1 (stereo not drawn) [Compound 1.006, N-(6′-((6-(1-(6-((2-(2,6-dioxopiperidin-3-yl)-1,3-dioxoisoindolin-4-yl)amino)-6-oxohexyl)-1H-1,2,3-triazol-4-yl)hexyl)oxy)-2-methyl-5′-morpholino-[3,3′-bipyridin]-5-yl)-3-(trifluoromethyl)benzamide]

Second part, the compound before the results:

Compound	RAF/E3 Dimerization
Cc1ncc(NC(=O)c2cccc(C(F)(F)F)c2)cc1-c1cnc(OCCCCc2cn(CCCCCC(=O)Nc3cccc4c3C(=O)N(C3CCC(=O)NC3=O)C4=O)nn2)c(N2CCOCC2)c1 (stereo not drawn) [Compound 1.004, N-(6′-(4-(1-(6-((2-(2,6-dioxopiperidin-3-yl)-1,3-dioxoisoindolin-4-yl)amino)-6-oxohexyl)-1H-1,2,3-triazol-4-yl)butoxy)-2-methyl-5′-morpholino-[3,3′-bipyridin]-5-yl)-3-(trifluoromethyl)benzamide]	+ (5% > RAF/E3 Dimerization)
Cc1ncc(NC(=O)c2cccc(C(F)(F)F)c2)cc1-c1cnc(OCCOCCOCCOCc2cn(CCCCCC(=O)Nc3cccc4c3C(=O)N(C3CCC(=O)NC3=O)C4=O)nn2)c(N2CCOCC2)c1 (stereo not drawn) [Compound 1.007, N-(6′-(2-(2-(2-((1-(6-((2-(2,6-dioxopiperidin-3-yl)-1,3-dioxoisoindolin-4-yl)amino)-6-oxohexyl)-1H-1,2,3-triazol-4-yl)methoxy)ethoxy)ethoxy)ethoxy)-2-methyl-5′-morpholino-[3,3′-bipyridin]-5-yl)-3-(trifluoromethyl)benzamide]	+ + +
Cc1ncc(NC(=O)c2cccc(C(F)(F)F)c2)cc1-c1cnc(OCCOCCOCCOCCOCCOCc2cn(CCCCCC(=O)Nc3cccc4c3C(=O)N(C3CCC(=O)NC3=O)C4=O)nn2)c(N2CCOCC2)c1 (stereo not drawn) [Compound 1.008, N-(6′-((1-(1-(6-((2-(2,6-dioxopiperidin-3-yl)-1,3-dioxoisoindolin-4-yl)amino)-6-oxohexyl)-1H-1,2,3-triazol-4-yl)-2,5,8,11,14-pentaoxahexadecan-16-yl)oxy)-2-methyl-5′-morpholino-[3,3′-bipyridin]-5-yl)-3-(trifluoromethyl)benzamide]	+ + +

same assay, conditions: Table 17; relative value; compounds 4 fold serial dilutions from 20 μM

RAF/E3 Dimerization	Compound
+ (5% > RAF/E3 Dimerization)	Cc1ncc(NC(=O)c2cccc(C(F)(F)F)c2)cc1-c1cnc(OC(C)Cc2cnnn2CCCCCC(=O)Nc2cccc3c2C(=O)N(C2CCC(=O)NC2=O)C3=O)c(N2CCOCC2)c1 (racemic) [Compound 1.010, (±)-N-(6′-((1-(1-(6-((2-(2,6-dioxopiperidin-3-yl)-1,3-dioxoisoindolin-4-yl)amino)-6-oxohexyl)-1H-1,2,3-triazol-5-yl)propan-2-yl)oxy)-2-methyl-5′-morpholino-[3,3′-bipyridin]-5-yl)-3-(trifluoromethyl)benzamide]
+ (5% > RAF/E3 Dimerization)	Cc1ccc(NC(=O)c2cccc(C(F)(F)F)c2)cc1-c1cnc(OC(C)Cc2cnnn2CCCCCC(=O)Nc2cccc3c2C(=O)N(C2CCC(=O)NC2=O)C3=O)c(N2CCOCC2)c1 (racemic) [Compound 1.011, (±)-N-(3-(6-((1-(1-(6-((2-(2,6-dioxopiperidin-3-yl)-1,3-dioxoisoindolin-4-yl)amino)-6-oxohexyl)-1H-1,2,3-triazol-5-yl)propan-2-yl)oxy)-5-morpholinopyridin-3-yl)-4-methylphenyl)-3-(trifluoromethyl)benzamide]
+ (5% > RAF/E3 Dimerization)	CCC(Cc1cnnn1CCCCCC(=O)Nc1cccc2c1C(=O)N(C1CCC(=O)NC1=O)C2=O)Oc1ncc(-c2cc(NC(=O)c3cccc(C(F)(F)F)c3)cnc2C)cc1N1CCOCC1 (racemic) [Compound 1.012, (±)-N-(6′-((1-(1-(6-((2-(2,6-dioxopiperidin-3-yl)-1,3-dioxoisoindolin-4-yl)amino)-6-oxohexyl)-1H-1,2,3-triazol-5-yl)butan-2-yl)oxy)-2-methyl-5′-morpholino-[3,3′-bipyridin]-5-yl)-3-(trifluoromethyl)benzamide]
+ (5% > RAF/E3 Dimerization)	Cc1ncsc1-c1ccc([C@H](C)NC(=O)C2C[C@@H](O)CN2C(=O)C(NC(=O)CCOCCOCCNC(=O)c2cc(Oc3ccc(NC(=O)Nc4ccc(Cl)c(C(F)(F)F)c4)cc3)ccn2)C(C)(C)C)cc1 (stereo in doubt) [Compound 1.014, 4-(4-(3-(4-chloro-3-(trifluoromethyl)phenyl)ureido)phenoxy)-N-(2-(2-(3-(((R)-1-((2S,4R)-4-hydroxy-2-(((S)-1-(4-(4-methylthiazol-5-yl)phenyl)ethyl)carbamoyl)pyrrolidin-1-yl)-3,3-dimethyl-1-oxobutan-2-yl)amino)-3-oxopropoxy)ethoxy)ethyl)picolinamide]
